Reference: US9382286B2, “Treatment of EBV and KHSV infection and associated abnormal cellular proliferation” (EMORY UNIVERSITY, priority 2001, dated 2016)

What follows are compounds tested on HIV-1LAI (assay: Anti-HIV-1 activity in human PBM cells). Settings: Human immunodeficiency virus 1, PBMC; read-out: EC50 against human immunodeficiency virus type 1.
Format: cell-based
Procedure: Anti-HIV-1 activity of the compounds was determined in human peripheral blood mononuclear (PBM) cells as described previously (Schinazi R. F., McMillan A., Cannon D., Mathis R., Lloyd R. M. Jr., Peck A., Sommadossi J.-P., St. Clair M., Wilson J., Furman P. A., Painter G., Choi W.-B., Liotta D. C. Antimicrob. Agents Chemother. 1992, 36, 2423; Schinazi, R. F., Sommadossi J.-P., Saalmann V., Cannon D., Xie M.-Y., Hart G., Smith G., Hahn E. Antimicrob. Agents Chemother. 1990, 34, 1061). Stock solutions (20-40 mM) of the compounds were prepared in sterile DMSO and then diluted to the desired concentration in growth medium. Cells were infected with the prototype HIV-1LAI at a multiplicity of infection of 0.01. Virus obtained from the cell supernatant was quantified on day 6 after infection by a reverse transcriptase assay using (rA)n.(dT)12-18 as template-primer. The DMSO present in the diluted solution (<0.1%) had no effect on the virus yield. AZT was included as positive control. The toxicity of some compounds was assessed in Vero, human PBM, and CEM cells, as described previously (Schinazi R. F., Sommadossi J.-P., Saalmann V., Cannon D. L., Xie M.-Y., Hart G. C., Smith G. A., Hahn E. F. Antimicrob Agents Chemother. 1990, 34, 1061-1067). Cycloheximide was included as positive cytotoxic control, and untreated cells exposed to solvent were included as negative controls. […]

Row | SMILES | EC50 [nM]
1 | C#Cc1cn([C@H]2CC(O)[C@@H](CO)O2)c(=O)[nH]c1=O (stereo partly drawn) [5-ethynyl-dU, β-D-2′-deoxy-5-ethynyluridine] | 610

The compounds below were run against T1, EBV-TK (Epstein-Barr virus, UniProt P03177) (assay: Selectivity for EBV-TK: thymidine phosphorylation competition and cytotoxicity assays on EBV-TK-expressing cells). Settings: EBV-TK versus human cellular thymidine kinase.
T1 construct: expressed in transfected cells; host or cells: 143B TK- human osteosarcoma cells and 293 human embryonic kidney cells, stably transfected with pCMV EBV-TK
Format: cell-based
Procedure: J. Virol. 74, 684-692). EBV-TK was incubated in an optimized buffer with 15 μM 3H-dT as substrate in a final volume of 100 μL. The enzyme source was either lysate from 143B EBV-TK-expressing cells or purified GST EBV-TK from E. coli. The amount of enzyme was adjusted so that the reaction proceeded linearly for over 60 min. A 10-fold excess (150 μM) of the nucleoside analog being tested was included in the experiment. The reaction was halted at 30 min. by spotting 50 μL of the reaction onto positively charged DE-81 discs (Whatman). After washing four times with 5 mM ammonium formate and once with 95% ethanol, the discs were dried and counted in a scintillation counter. The CPM of the positive control reaction containing no nucleoside analog was taken as 100% activity.
This assay measures the ability of a candidate nucleoside to specifically eliminate EBV-infected cells in the continuous presence of drug. 143B TK-cells lack TK-1. 293 cells contain human TK-1. Therefore, these assays comparatively assess the effects of human TK expression on toxicity. Stock solutions (20-40 mM) of the compounds were prepared in sterile DMSO and then diluted to the desired concentration in growth medium. The cells (143B TK-, 293 EBV-TK or 293 Neo control cells) were cultured in the presence of drug for 5 days, and the media was replaced with fresh media containing drug on day three. Cells were then washed one time with PBS, fixed with 4% formaldehyde/1% methanol and stained with 1% crystal violet in 20% ethanol for visualization of the cell monolayer. […] Cultures with this designation often have media that is still “pink,” indicating a slowdown of cellular metabolism. Identical samples are assessed in triplicate.
Stock solutions (20-40 mM) of the compounds were prepared in sterile DMSO and then diluted to the desired concentration in growth medium. Exponentially growing cells were incubated with the nucleoside in question for 24 h, plated in 24-well plates at 50 viable cells per well and incubated for 7-9 days in the absence of drug. Cells were fixed and stained as above and colonies were counted. A nucleoside can cause a decrease in the number of colonies, which is an indirect indication of the number of cells able to survive and to replicate after the initial exposure to drug.
Two cell systems are employed to determine the toxicity of each nucleoside. The information obtained depends upon the system used. In 143B TK-cells, cytotoxic drugs that are dependent upon phosphorylation by a TK are easily identified. 143B TK-cells expressing either EBV-TK or hTK1 permit assessment of whether either enzyme independently may cause a drug to become cytotoxic. Thus, drugs that can be activated by hTK1, which would cause non-specific cytotoxicity, are readily identified. One drawback is that these cells are grown in HAT media that “forces” nucleosides through the TK salvage pathway (EBV-TK or hTK1). A false positive may arise if a nucleoside out-competes dT for phosphorylation such that sufficient amounts of dT are not available for cellular replication. This toxicity may not be present or may be reduced in a cell that has the synthetic as well as salvage pathways available for dTTP production. For this reason, the 293 system was developed. These cells have endogenous hTK1 and EBV-TK is maintained by selection in G418. Thus, the normal hTK1 salvage pathway is operational, and nucleosides can be expected to flux through the cells normally. Drugs are incubated with 293 cells transformed with a neomycin (Neo) expressing plasmid (Neo control) and with cells transfected with the same plasmid also expressing EBV-TK. A nucleoside selectively activated by EBV-TK should cause toxicity on 293 EBV-TK and not on 293 Neo control cells. In both the 143B and 293 cell systems, toxicity is evaluated by cell survival. The cells are cultured in the presence of drug for 5 days, and the media replaced with fresh media containing drug on day 3. […]

T1 sequence (P03177 whole entry): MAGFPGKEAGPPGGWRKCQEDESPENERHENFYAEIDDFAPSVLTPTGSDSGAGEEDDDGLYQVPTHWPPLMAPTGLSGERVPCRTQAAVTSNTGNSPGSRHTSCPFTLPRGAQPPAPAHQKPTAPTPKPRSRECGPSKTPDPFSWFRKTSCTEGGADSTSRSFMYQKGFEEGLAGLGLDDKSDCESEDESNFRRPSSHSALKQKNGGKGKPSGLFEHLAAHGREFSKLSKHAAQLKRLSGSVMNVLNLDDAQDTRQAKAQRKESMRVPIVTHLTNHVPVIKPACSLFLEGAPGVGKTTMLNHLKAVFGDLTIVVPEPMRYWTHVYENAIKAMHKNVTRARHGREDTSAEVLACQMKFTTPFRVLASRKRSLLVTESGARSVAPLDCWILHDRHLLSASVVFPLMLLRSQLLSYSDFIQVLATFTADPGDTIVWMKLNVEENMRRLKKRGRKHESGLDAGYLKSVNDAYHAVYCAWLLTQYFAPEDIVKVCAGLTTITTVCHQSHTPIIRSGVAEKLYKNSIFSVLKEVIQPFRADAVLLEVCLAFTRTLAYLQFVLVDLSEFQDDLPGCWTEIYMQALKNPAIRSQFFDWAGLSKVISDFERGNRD

Row | SMILES | selectivity for EBV-TK (specifically phosphorylated and converted into a cytotoxic agent by EBV-TK)
2 | C=Cc1cn([C@H]2CC(O)[C@@H](CO)O2)c(=O)[nH]c1=O (stereo partly drawn) [5-vinyl-dU, β-D-2′-deoxy-5-vinyluridine] | selectivity for EBV-TK
3 | O=c1[nH]c(=O)n([C@@H]2CO[C@H](CO)O2)cc1-c1ccco1 [(2S,4S)-5-(2-furanyl)-1-[2-(hydroxymethyl)-1,3-dioxolan-4-yl]uracil] | selectivity for EBV-TK
4 | O=c1[nH]c(=O)n([C@@H]2CO[C@H](CO)O2)cc1-c1cccs1 [(2S,4S)-5-(2-thienyl)-1-[2-(hydroxymethyl)-1,3-dioxolan-4-yl]uracil] | selectivity for EBV-TK
5 | O=c1[nH]c(=O)n([C@@H]2CO[C@H](CO)O2)cc1/C=C/CO [(2S,4S)-5-(3-hydroxypropenyl)-1-[2-(hydroxymethyl)-1,3-dioxolan-4-yl]uracil] | selectivity for EBV-TK
6 | O=c1[nH]c(=O)n([C@@H]2CO[C@H](CO)O2)cc1-c1ccc(Br)o1 [(2S,4S)-5-(5-bromo-2-furanyl)-1-[2-(hydroxymethyl)-1,3-dioxolan-4-yl]uracil] | selectivity for EBV-TK
7 | O=c1[nH]c(=O)n([C@@H]2CO[C@H](CO)O2)cc1-c1ccc(Br)s1 [(2S,4S)-5-(5-bromthien-2-yl)-1-[2-(hydroxymethyl)-1,3-dioxolan-4-yl]uracil] | selectivity for EBV-TK
8 | O=c1[nH]c(=O)n([C@H]2CC(O)[C@@H](CO)O2)cc1CO (stereo partly drawn) [β-D-2′-deoxy-5-(hydroxymethyl)uridine] | selectivity for EBV-TK
9 | O=C(O)/C=C/c1cn([C@H]2CC(O)[C@@H](CO)O2)c(=O)[nH]c1=O (stereo partly drawn) [β-D-5-E-(2-carboxyvinyl)-2′-deoxyuridine] | selectivity for EBV-TK
10 | CCCCc1cn([C@H]2CC(O)[C@@H](CO)O2)c(=O)[nH]c1=O (stereo partly drawn) [β-D-5-butyl-2′-deoxyuridine] | selectivity for EBV-TK
11 | O=c1[nH]c(=O)n([C@@H]2CC(O)[C@H](CO)O2)cc1I (stereo partly drawn) [β-L-2′-deoxy-5-iodouridine] | selectivity for EBV-TK
12 | C=Cc1cn([C@@H]2CC(O)[C@H](CO)O2)c(=O)[nH]c1=O (stereo partly drawn) [β-L-2′-deoxy-5-vinyluridine] | selectivity for EBV-TK
13 | C=Cc1cn([C@H]2O[C@@H](CO)C(O)C2O)c(=O)[nH]c1=O (stereo partly drawn) [β-L-5-vinyluridine] | selectivity for EBV-TK
